According to patent publication US20090118350A1, “Biomarkers for Identifying Efficacy of Tegaserod in Patients with Chronic Constipation” (priority 2005, published 2009):
Where two headings read alike, the source gives them in different places.

Legend:
[1] = test system: patients with chronic constipation; assay: Weekly diary assessments (satisfaction with bowel habits, bothersome constipation, abdominal bloating, abdominal pain, global constipation relief) after 12 weeks, ANCOVA; type: in vivo, human; conditions: for weekly diary assessments, outcome: 6-mg bid vs placebo, 12 weeks; for Bothersome abdominal bloating, LS Mean Value / Bothersome abdominal pain, LS Mean Value / Bothersome constipation, LS Mean Value / Global constipation relief, LS Mean Value / Satisfaction with bowel habit, LS Mean Value: 12-wk, tegaserod 6-mg bid, lower value = better response
Method: Clinical assessments. […] The primary efficacy endpoint evaluated was the increase of 1 or more CSBM/week over baseline after 4 weeks of treatment. A secondary endpoint evaluated in this genotyping study was RESP12, the increase of 1 of more CSBM/week over baseline after 12 weeks of treatment. Patients were classified as responders if they met these criteria and had completed at least 7 days of treatment. Additional secondary efficacy assessments were evaluated based on the weekly diary assessments, such as bothersome constipation, bothersome abdominal pain, and satisfaction with bowel habits at the end of the 12-week treatment period (using the baseline value as a co-variant for analysis). Additional secondary endpoints. In addition to the above assessments, 5 additional secondary efficacy endpoints were evaluated from the weekly diary assessments. These included the weekly changes in satisfaction with bowel habits, bothersome constipation, bothersome abdominal bloating, bothersome abdominal pain, and global constipation relief. TABLE 13 presents the results of analysis comparing the overall change in these parameters at the end of 12 weeks of treatment by treatment (tegaserod 6-mg bid vs. placebo) and whether they had 1 or more of the 12 “high responder” SNPs. An ANCOVA model was applied using the baseline value of these assessments as a quantitative co-variant.

[2] = test system: chronic constipation patients; conditions: chronic constipation patients across North and South America; Johanson et al. 2004; cited from earlier work
[3] = test system: healthy volunteers, patients with IBS-C, patients with chronic constipation; conditions: cited from earlier work
[4] = test system: patients with chronic constipation; assay: Response by serotonin transporter (SLC6A4) promoter insertion/deletion genotype; type: in vivo, human; conditions: for OR: tegaserod vs placebo
Text: Two major classes of insertion/deletion polymorphisms have been characterized for the SLC6A4 gene, one in intron 2 and another in the promoter region. SLC6A4 is the serotonin transporter gene, also know as SERT or HTT. Camilleri and colleagues reported that SLC6A4 promoter insertion/deletion polymorphism was associated with colonic transit response following treatment with the serotonin 5-HT3 receptor antagonist alosetron. Camilleri M et al., Gastroenterology; 123 (2):425-32 (2002). […] The overall response rates for C16-C16 were 48% for tegaserod and 21% for placebo (OR=3.51, 95% CI: 1.67-7.41) compared to the C14-C14 homozygotes at 45% for tegaserod and 27% for placebo (OR=2.3, 95% CI: 0.93-5.69) and C14-C16 heterozygotes at 43% for tegaserod and 28% for placebo (OR=1.95; 95% CI: 1.12-3.41). Within a given treatment group, there was no statistically significant difference between response rates between the different genotypes.

[H]/N=C(/NCCCCC)N/N=C/c1c[nH]c2ccc(OC)cc12 [tegaserod, Tegaserod]
weekly diary assessments, outcome ([1]; all patients combined): better outcome compared to placebo
weekly diary assessments, outcome ([1]; individuals with 1 or more of the 12 SNPs, all 5 assessments): significantly greater responses to tegaserod than placebo
weekly diary assessments, outcome ([1]; individuals with none of the 12 SNPs): no treatment difference
Bothersome abdominal bloating, LS Mean Value ([1]; 0 of 12 SNPs): 2.18
Bothersome abdominal pain, LS Mean Value ([1]; 0 of 12 SNPs): 1.90
Bothersome constipation, LS Mean Value ([1]; 0 of 12 SNPs): 2.25
Global constipation relief, LS Mean Value ([1]; 0 of 12 SNPs): 2.20
Satisfaction with bowel habit, LS Mean Value ([1]; 0 of 12 SNPs): 2.48
Bothersome abdominal bloating, LS Mean Value ([1]; >=1 of 12 SNPs): 2.00
Bothersome abdominal pain, LS Mean Value ([1]; >=1 of 12 SNPs): 1.77
Bothersome constipation, LS Mean Value ([1]; >=1 of 12 SNPs): 1.87
Global constipation relief, LS Mean Value ([1]; >=1 of 12 SNPs): 1.95
Satisfaction with bowel habit, LS Mean Value ([1]; >=1 of 12 SNPs): 2.17
Bothersome abdominal bloating, LS Mean Value ([1]; All geno): 2.09
Bothersome abdominal pain, LS Mean Value ([1]; All geno): 1.84
Bothersome constipation, LS Mean Value ([1]; All geno): 2.07
Global constipation relief, LS Mean Value ([1]; All geno): 2.08
Satisfaction with bowel habit, LS Mean Value ([1]; All geno): 2.33
response rate [2]: 43%
colonic transit time ([3]; healthy volunteers (Degen et al. 2001)): significantly increase colonic transit time
colonic transit time ([3]; patients with IBS-C (Prather et al. 2000)): significantly increase colonic transit time
colonic transit time ([3]; patients with chronic constipation (Johanson et al. 2004)): significantly increase colonic transit time
overall response rate ([4]; serotonin transporter promoter polymorphism C14-C14 homozygotes): 45%
overall response rate ([4]; serotonin transporter promoter polymorphism C14-C16 heterozygotes): 43%
overall response rate ([4]; serotonin transporter promoter polymorphism C16-C16 homozygotes): 48%
OR ([4]; C14-C14 homozygotes): 2.3
OR ([4]; C14-C16 heterozygotes): 1.95
OR ([4]; C16-C16 homozygotes): 3.51
